Experimental data published in patent publication US4104384A, “1-(2'-Aroyl eth-1'yl) 2-(4"-acetamido piperazine-1"yl methyl) benzimidazoles and their therapeutical applications” (priority 1975, dated 1978).

Legend:
gastric secretion = experiment: Gastric antisecretory properties: gastric secretion after Shay ligature, intraduodenal; assay type: in vivo; settings: rat, read-out: Reduction of volume of gastric secretion; for inhibition in vivo at 1.6 mg/kg: 1.6 mg/kg/i.d.; for inhibition in vivo at 1.5 mg/kg: 1.5 mg/kg/i.d.; for inhibition in vivo at 10 mg/kg: 10 mg/kg/i.d.
Text: Administered intraduodenally to a rat, the compounds of formula (I) are capable of reducing gastric secretion measured after Shay ligature.

stress ulcers = experiment: Anti-ulcerous properties: ulcerations in rat under stress for 7 hours, oral; assay type: in vivo; settings: for inhibition in vivo at 7.7 mg/kg: 7.7 mg/kg/p.o.; for inhibition in vivo at 7.4 mg/kg: 7.4 mg/kg/p.o.; for inhibition in vivo at 20 mg/kg: 20 mg/kg/p.o.
Shay's ulcer = experiment: Anti-ulcerous properties: ulceration caused by ligature of the pylorus (Shay's ulcers), intraduodenal; assay type: in vivo; settings: rat, read-out: Percentage reduction of Shay's ulcer; for inhibition in vivo at 10 mg/kg: 10 mg/kg/i.d.; for inhibition in vivo at 15.5 mg/kg: 15.5 mg/kg/i.d.; for inhibition in vivo at 14.8 mg/kg: 14.8 mg/kg/i.d.; for inhibition in vivo at 7.3 mg/kg: 7.3 mg/kg/i.d.
Text: Furthermore, the compounds of formula (I) administered intraduodenally reduce the ulceration area caused by ligature of the pylorus of a rat (Shay's ulcers).

[1] = test system: bronchoconstriction caused by acetylcholine; experiment: Anticholinergic and antibronchoconstrictive: bronchoconstriction by intravenous acetylcholine, Konzett's method; assay type: in vivo; settings: Cavia porcellus, guinea-pig, read-out: Percentage inhibition of the bronchoconstriction
Text: Injected intravenously or intraduodenally, the compounds of formula (I) are capable of opposing bronchoconstriction caused in a guinea-pig by intravenous injection of acetylcholine and evaluated by Konzett's method.

jejunal ansa of a rabbit = experiment: Spasmolytic in vivo: contractions of the jejunal ansa caused by electric stimulation
Text: The compounds of formula (I), administered intraduodenally are capable of reducing the contractions of the jejunal ansa of a rabbit, caused by electric stimulation.

painful stretchings = experiment: Analgesic: painful stretchings following intraperitoneal injection of acetic acid; assay type: in vivo; settings: po, mouse, read-out: Percentage diminution painful stretchings; for inhibition in vivo at 40 mg/kg: 40 mg/kg/p.o.; for inhibition in vivo at 50 mg/kg: 50 mg/kg/p.o.
Text: The compounds of formula (I), administered orally to a mouse, are capable of reducing the number of painful stretchings following intraperitioneal injection of acetic acid.

sub-plantar oedema = experiment: Anti-inflammatory: sub-plantar oedema caused by carragenine; assay type: in vivo; settings: po, rat, read-out: Percentage reduction of sub-plantar oedema; for inhibition in vivo at 50 mg/kg: 50 mg/kg/p.o.
[2] = Acute toxicity, lethal dose 50; settings: mouse, in vivo, po, read-out: Lethal dose 50 (mouse) / DL 50 (mouse) (converted)
arterial pressure = experiment: Anti-hypertensive: arterial pressure in genetically hyperstressed vigil rats (S.H.R.); assay type: in vivo, rat; settings: 150 mg/kg/p.o., 4 hours
Description: The compounds of formula (I) are capable, 4 hours after their oral injection, of bringing the arterial pressure down to normal in genetically hyperstressed vigil rats (S.H.R.).

[3] = po, read-out: Percentage reduction of stress ulcers

## O=C(CCn1c(CN2CCN(CC(=O)N3CCCC3)CC2)nc2ccccc21)c1ccccc1 [73 0458, 1-(2'-benzoyleth-1' yl) 2-(4"-pyrrolidinocarbonylmethylpiperazine-1" ylmethyl) benzimidazole]
Gastric secretion; Rat2, intraduodenal, 2 mg/kg/i.d.
  inhibition in vivo at 2 mg/kg: 19%
Stress ulcers; po, 5 mg/kg/p.o., read-out: Percentage reduction of stress ulcers
  inhibition in vivo at 5 mg/kg: 77%
Shay's ulcer
  inhibition in vivo at 10 mg/kg: 90%
[1]; intraduodenal, i.d., 100 mg/kg
  inhibition in vivo at 100 mg/kg: 67%

## CCNC(=O)CN1CCN(Cc2nc3ccccc3n2CCC(=O)c2ccccc2)CC1 [74 0144]
Gastric secretion; intraduodenal
  inhibition in vivo at 1.6 mg/kg: 85%
Stress ulcers; [3]
  inhibition in vivo at 7.7 mg/kg: 99%
Shay's ulcer
  inhibition in vivo at 15.5 mg/kg: 98%
Jejunal ansa of a rabbit; 15.5 mg/kg/i.d.
  Diminution of contractions of the jejunum for more than an hour: 43%
[1]; iv, i.v.
  inhibition in vivo at 4 mg/kg: 100%
Painful stretchings
  inhibition in vivo at 40 mg/kg: 92%
sub-plantar oedema; 30 mg/kg/p.o.
  inhibition in vivo at 30 mg/kg: 35%
[2]
  LD50: 310 mg/kg

## CNC(=O)CN1CCN(Cc2nc3ccccc3n2CCC(=O)c2ccccc2)CC1 [74 0145]
Gastric secretion; intraduodenal
  inhibition in vivo at 1.6 mg/kg: 88%
Stress ulcers; [3]
  inhibition in vivo at 7.7 mg/kg: 100%
Shay's ulcer
  inhibition in vivo at 15.5 mg/kg: 100%
[1]; iv, i.v., 0.5 mg/kg
  inhibition in vivo at 0.5 mg/kg: 75%
Painful stretchings; 10 mg/kg/p.o.
  inhibition in vivo at 10 mg/kg: 70%
sub-plantar oedema; 10 mg/kg/p.o.
  inhibition in vivo at 10 mg/kg: 40%
[2]
  LD50: 180 mg/kg

## CCCNC(=O)CN1CCN(Cc2nc3ccccc3n2CCC(=O)c2ccccc2)CC1 [74 0159]
Gastric secretion; intraduodenal
  inhibition in vivo at 1.5 mg/kg: 77%
Stress ulcers; po, 7.5 mg/kg/p.o., read-out: Percentage reduction of stress ulcers
  inhibition in vivo at 7.5 mg/kg: 100%
Stress ulcers; po, 7.6 mg/kg/p.o., read-out: Percentage reduction of stress ulcers
  inhibition in vivo at 7.6 mg/kg: 100%
Shay's ulcer; 15.1 mg/kg/i.d.
  inhibition in vivo at 15.1 mg/kg: 100%
[1]; iv, i.v.
  inhibition in vivo at 5 mg/kg: 100%
Painful stretchings
  inhibition in vivo at 50 mg/kg: 40%
sub-plantar oedema
  inhibition in vivo at 50 mg/kg: 57%
[2]
  LD50: 1250 mg/kg

## O=C(CCn1c(CN2CCN(CC(=O)N3CCOCC3)CC2)nc2ccccc21)c1ccccc1 [74 0160]
Gastric secretion; intraduodenal
  inhibition in vivo at 1.5 mg/kg: 45%
Stress ulcers; po, 6 mg/kg/p.o., read-out: Percentage reduction of stress ulcers
  inhibition in vivo at 6 mg/kg: 76%
Shay's ulcer; 15 mg/kg/i.d.
  inhibition in vivo at 15 mg/kg: 99%
sub-plantar oedema
  inhibition in vivo at 50 mg/kg: 50%
[2]
  LD50: 1700 mg/kg

## CN(C)C(=O)CN1CCN(Cc2nc3ccccc3n2CCC(=O)c2ccccc2)CC1 [74 0180]
Gastric secretion; intraduodenal
  inhibition in vivo at 1.5 mg/kg: 86%
Stress ulcers; [3]
  inhibition in vivo at 7.7 mg/kg: 100%
Shay's ulcer; 7.7 mg/kg/i.d.
  inhibition in vivo at 7.7 mg/kg: 94%
Jejunal ansa of a rabbit; 15.4 mg/kg/i.d.
  Diminution of contractions of the jejunum for more than an hour: 50%
[1]; iv, i.v.
  inhibition in vivo at 5 mg/kg: 100%
Painful stretchings
  inhibition in vivo at 50 mg/kg: 53%
sub-plantar oedema
  inhibition in vivo at 50 mg/kg: 47%
[2]
  LD50: 716 mg/kg

## CCN(CC)C(=O)CN1CCN(Cc2nc3ccccc3n2CCC(=O)c2ccccc2)CC1 [74 0184]
Gastric secretion; intraduodenal
  inhibition in vivo at 1.5 mg/kg: 77%
Stress ulcers; [3]
  inhibition in vivo at 7.4 mg/kg: 100%
Shay's ulcer; 7.4 mg/kg/i.d.
  inhibition in vivo at 7.4 mg/kg: 100%
Jejunal ansa of a rabbit; 14.9 mg/kg/i.d.
  Diminution of contractions of the jejunum for more than an hour: 39%
[1]; iv, i.v.
  inhibition in vivo at 4 mg/kg: 100%
Painful stretchings
  inhibition in vivo at 50 mg/kg: 63%
sub-plantar oedema
  inhibition in vivo at 50 mg/kg: 65%
[2]
  LD50: 1300 mg/kg

## CCCCNC(=O)CN1CCN(Cc2nc3ccccc3n2CCC(=O)c2ccccc2)CC1 [74 0186]
Gastric secretion; intraduodenal
  inhibition in vivo at 1.5 mg/kg: 67%
Stress ulcers; [3]
  inhibition in vivo at 7.4 mg/kg: 98%
Shay's ulcer
  inhibition in vivo at 14.8 mg/kg: 75%
[1]; iv, i.v., 2 mg/kg
  inhibition in vivo at 2 mg/kg: 100%
Painful stretchings
  inhibition in vivo at 40 mg/kg: 77%
sub-plantar oedema; 40 mg/kg/p.o.
  inhibition in vivo at 40 mg/kg: 48%
[2]
  LD50: 360 mg/kg

## CC(C)CNC(=O)CN1CCN(Cc2nc3ccccc3n2CCC(=O)c2ccccc2)CC1 [74 0187]
Gastric secretion; intraduodenal
  inhibition in vivo at 1.5 mg/kg: 78%
Stress ulcers; [3]
  inhibition in vivo at 7.4 mg/kg: 100%
Shay's ulcer
  inhibition in vivo at 14.8 mg/kg: 94%
[1]; iv, i.v.
  inhibition in vivo at 5 mg/kg: 100%
Painful stretchings
  inhibition in vivo at 50 mg/kg: 42%
sub-plantar oedema
  inhibition in vivo at 50 mg/kg: 47%
[2]
  LD50: 1600 mg/kg

## O=C(CCn1c(CN2CCN(CC(=O)N3CCCCCC3)CC2)nc2ccccc21)c1ccccc1 [74 0195]
Stress ulcers; po, 7.1 mg/kg/p.o., read-out: Percentage reduction of stress ulcers
  inhibition in vivo at 7.1 mg/kg: 59%
Shay's ulcer; 14.2 mg/kg/i.d.
  inhibition in vivo at 14.2 mg/kg: 86%
Jejunal ansa of a rabbit; 14.2 mg/kg/i.d.
  Diminution of contractions of the jejunum of a rabbit: 30%
[1]; intraduodenal, i.d., 25 mg/kg
  inhibition in vivo at 25 mg/kg: 60%
Painful stretchings
  inhibition in vivo at 50 mg/kg: 53%
[2]
  LD50: > 2000 mg/kg

## CCCN(CCC)C(=O)CN1CCN(Cc2nc3ccccc3n2CCC(=O)c2ccccc2)CC1 [74 0196]
Gastric secretion; intraduodenal
  inhibition in vivo at 1.5 mg/kg: 74%
Stress ulcers; po, 7.3 mg/kg/p.o., read-out: Percentage reduction of stress ulcers
  inhibition in vivo at 7.3 mg/kg: 88%
Shay's ulcer
  inhibition in vivo at 7.3 mg/kg: 90%
[2]
  LD50: 2100 mg/kg

## CC(C)N(C(=O)CN1CCN(Cc2nc3ccccc3n2CCC(=O)c2ccccc2)CC1)C(C)C [74 0453]
Shay's ulcer
  inhibition in vivo at 7.3 mg/kg: 82%
[1]; iv, i.v., 2.5 mg/kg
  inhibition in vivo at 2.5 mg/kg: 100%
[2]
  LD50: 1000 mg/kg

## CC(C)NC(=O)CN1CCN(Cc2nc3ccccc3n2CCC(=O)c2ccc([N+](=O)[O-])cc2)CC1 [74 0747]
Arterial pressure
  arterial pressure brought down to normal: 4 animals out of 7
[2]
  LD50: 2200 mg/kg

## O=C(CN1CCN(Cc2nc3ccccc3n2CCC(=O)c2ccccc2)CC1)NC1CCCC1 [74 0751]
Gastric secretion; intraduodenal, 4.5 mg/kg/i.d.
  inhibition in vivo at 4.5 mg/kg: 69%
Stress ulcers; oral, read-out: DE 50, stress ulcers
  ED50: 11 mg/kg
Shay's ulcer
  inhibition in vivo at 10 mg/kg: 89%
[2]
  LD50: 1100 mg/kg

## Cc1ccc(C(=O)CCn2c(CN3CCN(CC(=O)NC(C)C)CC3)nc3ccccc32)cc1 [75 0009]
Gastric secretion; intraduodenal
  inhibition in vivo at 10 mg/kg: 62%
Stress ulcers; [3]
  inhibition in vivo at 20 mg/kg: 90%
Shay's ulcer; 20 mg/kg/i.d.
  inhibition in vivo at 20 mg/kg: 56%
[2]
  LD50: 1800 mg/kg

## COc1cccc(C(=O)CCn2c(CN3CCN(CC(=O)NC(C)C)CC3)nc3ccccc32)c1 [75 0010]
Gastric secretion; intraduodenal, 25 mg/kg/i.d.
  inhibition in vivo at 25 mg/kg: 82%
Stress ulcers; [3]
  inhibition in vivo at 20 mg/kg: 77%
Shay's ulcer; 40 mg/kg/i.d.
  inhibition in vivo at 40 mg/kg: 86%
[2]
  LD50: 1200 mg/kg

## CC(C)NC(=O)CN1CCN(Cc2nc3ccccc3n2CCC(=O)c2ccc(Cl)cc2)CC1 [75 0012]
Gastric secretion; intraduodenal
  inhibition in vivo at 10 mg/kg: 63%
Stress ulcers; [3]
  inhibition in vivo at 20 mg/kg: 64%
Shay's ulcer
  inhibition in vivo at 10 mg/kg: 73%
[2]
  LD50: 1300 mg/kg

## NC(=O)CN1CCN(Cc2nc3ccccc3n2CCC(=O)c2ccccc2)CC1 [75 0102]
Gastric secretion; intraduodenal
  inhibition in vivo at 10 mg/kg: 91%
Stress ulcers; po, 10 mg/kg/p.o., read-out: Percentage reduction of stress ulcers
  inhibition in vivo at 10 mg/kg: 100%
Shay's ulcer
  inhibition in vivo at 10 mg/kg: 74%
Jejunal ansa of a rabbit; 25 mg/kg/i.d.
  Diminution of contractions of the jejunum for more than an hour: 80%
[2]
  LD50: 1300 mg/kg

## C[N+]1(C)CCC(=C(c2ccccc2)c2ccccc2)CC1 [Diphemanil, diphemanil (methylsulfate), reference compound]
Gastric secretion; intraduodenal, 50 mg/kg/i.d.
  inhibition in vivo at 50 mg/kg: 52%
Stress ulcers; po, 100 mg/kg/p.o., ratio equal to 315, read-out: Percentage reduction of stress ulcers
  inhibition in vivo at 100 mg/kg: 91%
Jejunal ansa of a rabbit; 20 mg/kg/i.d.
  Diminution of contractions of the jejunum of a rabbit: 70%
[2]
  LD50: 317 mg/kg
